The term MIC denotes the smallest concentration in the dilution series that meets the test's criterion for growth inhibition. A lower MIC goes with greater potency.

Among the data in ChEMBL document CHEMBL3608226, “Synthesis and biological evaluation of phaitanthrin congeners as anti-mycobacterial agents” (2015) are MIC values, retold here.

What all share (format): functional
The subject of assay [1] is Mycobacterium tuberculosis. Description: Antimycobacterial activity against Mycobacterium tuberculosis H37Rv ATCC 27294 after 28 days by agar dilution method. The settings on record: H37Rv ATCC 27294, 672 h.
In assay [2] the test system is Mycobacterium tuberculosis. Description: Antimycobacterial activity against Mycobacterium tuberculosis H37Rv.
In the next assay the test system is Mycobacterium avium. Description: Antimycobacterial activity against Mycobacterium avium.
Assay [3] relates to Mycolicibacterium smegmatis. Description: Antimycobacterial activity against Mycobacterium smegmatis.

SMILES strings stand for the structures. Values after ≈ are worked out from the molar mass of the structure shown.

Molecule `O=c1c2ccccc2[nH]c2c(-c3c(-c4ccccc4)[nH]c4ccccc34)c3ccccc3n12` showed a minimum inhibitory concentration (MIC) in assay [1] of 8.58 µM (≈ 3.65 µg/mL).

In turn, `O=c1c2ccccc2[nH]c2c(-c3c(-c4ccccc4O)[nH]c4ccccc34)c3ccccc3n12` came in with a minimum inhibitory concentration (MIC) in assay [1] of 29.4 µM (≈ 13 µg/mL).

On to `N#Cc1ccc(-c2[nH]c3ccccc3c2-c2c3ccccc3n3c(=O)c4ccccc4[nH]c23)cc1`, for which the MIC in assay [1] amounted to 7.06 µM (≈ 3.18 µg/mL).

As for `O=c1c2ccccc2[nH]c2c(-c3c(-c4ccc(F)cc4)[nH]c4ccccc34)c3ccccc3n12`, it took 27.7 µM (≈ 12.3 µg/mL) to inhibit growth in assay [1] (MIC). This MIC lies about 3.9-fold higher than the previous one.

`O=c1c2ccccc2[nH]c2c(-c3c(-c4ccc(Br)cc4)[nH]c4ccccc34)c3ccccc3n12`: 56.4 µM (≈ 28.5 µg/mL) was the least that counted as inhibitory in assay [1] (MIC). Compared with the last molecule, the MIC is about 2-fold higher.

As for `Nc1ccccc1-c1[nH]c2ccccc2c1-c1c2ccccc2n2c(=O)c3ccccc3[nH]c12`, it took 6.18 µM (≈ 2.72 µg/mL) to inhibit growth in assay [1] (MIC).

In assay [1], `O=c1c2ccccc2[nH]c2c(-c3c(-c4cccs4)[nH]c4ccccc34)c3ccccc3n12` displayed an MIC of 7.3 µM (≈ 3.15 µg/mL).

Regarding `CCc1ccc(-c2[nH]c3ccccc3c2-c2c3ccccc3n3c(=O)c4ccccc4[nH]c23)cc1`, it took 12.3 µM (≈ 5.59 µg/mL) to inhibit growth in assay [1] (MIC).

In assay [1], `Nc1ccc(-c2[nH]c3ccccc3c2-c2c3ccccc3n3c(=O)c4ccccc4[nH]c23)cc1` showed an MIC of 14.2 µM (≈ 6.24 µg/mL).

Consider `O=C(CC1(O)c2ccccc2-c2nc3ccccc3nc21)c1ccc(Br)cc1` (racemic), for which the minimum inhibitory concentration (MIC) in assay [1] was found to be 14.4 µM (≈ 6.22 µg/mL).

Turning to `Nc1ccccc1C(=O)CC1(O)c2ccccc2-c2nc3ccccc3nc21` (racemic), in assay [1], 17 µM (≈ 6.25 µg/mL) was the least that counted as inhibitory (MIC).

Turning to `Nc1ccc(C(=O)CC2(O)c3ccccc3-c3nc4ccccc4nc32)cc1` (racemic), the MIC in assay [1] stood at 8.45 µM (≈ 3.1 µg/mL).

In assay [1], `Brc1ccc(C2=NN(c3ccccc3)C3(C2)c2ccccc2-c2nc4ccccc4nc23)cc1` (racemic) displayed an MIC of 12.4 µM (≈ 6.25 µg/mL).

Turning to `Nc1ccccc1C1=NN(c2ccccc2)C2(C1)c1ccccc1-c1nc3ccccc3nc12` (racemic), the MIC in assay [1] stood at 56.9 µM (≈ 25 µg/mL).

In assay [1], `Nc1ccc(C2=NN(c3ccccc3)C3(C2)c2ccccc2-c2nc4ccccc4nc23)cc1` (racemic) came in with an MIC of 7.17 µM (≈ 3.15 µg/mL).

Regarding `O=C(CC1(O)c2ccccc2-n2c1nc1ccccc1c2=O)c1ccccc1O` (racemic), in assay [1], it took 16.2 µM (≈ 6.24 µg/mL) to inhibit growth (MIC).

`N#Cc1ccc(C(=O)CC2(O)c3ccccc3-n3c2nc2ccccc2c3=O)cc1` (racemic) registered an MIC in assay [1] of 15.9 µM (≈ 6.26 µg/mL).

Turning to `O=C(CC1(O)c2ccccc2-n2c1nc1ccccc1c2=O)c1ccc(F)cc1` (racemic), the MIC in assay [1] is 8.85 µM (≈ 3.42 µg/mL).

As for `O=C(CC1(O)c2ccccc2-n2c1nc1ccccc1c2=O)c1ccc(Br)cc1` (racemic), the MIC in assay [1] was found to be 112 µM (≈ 50 µg/mL).

In assay [1], `Nc1ccccc1C(=O)CC1(O)c2ccccc2-n2c1nc1ccccc1c2=O` (racemic) came in with an MIC of 3.99 µM (≈ 1.53 µg/mL).

In assay [1], `O=C(CC1(O)c2ccccc2-n2c1nc1ccccc1c2=O)c1cccs1` (racemic) displayed a minimal inhibitory concentration (MIC) of 16.7 µM (≈ 6.25 µg/mL).

With `CCc1ccc(C(=O)CC2(O)c3ccccc3-n3c2nc2ccccc2c3=O)cc1` (racemic), in assay [1], the minimum inhibitory concentration (MIC) was determined as 7.88 µM (≈ 3.12 µg/mL).

The molecule `Nc1ccc(C(=O)CC2(O)c3ccccc3-n3c2nc2ccccc2c3=O)cc1` (racemic) showed an MIC in assay [1] of 16.3 µM (≈ 6.26 µg/mL).

Take `O=C(CC1(O)c2cccc(Br)c2-n2c1nc1ccccc1c2=O)c1ccc(Br)cc1` (racemic): the lowest concentration to inhibit growth in assay [1] (MIC) was 11.9 µM (≈ 6.24 µg/mL).

Regarding `O=C(CC1(O)c2ccccc2-n2c1nc1ccccc1c2=O)c1ccccc1NC(=S)Nc1ccc([N+](=O)[O-])cc1` (racemic), the minimal inhibitory concentration (MIC) in assay [1] worked out at 5.98 µM (≈ 3.37 µg/mL).

In turn, `O=C(CC1(O)c2ccccc2-n2c1nc1ccccc1c2=O)c1ccccc1` (racemic) came in with an MIC in assay [1] of 16.9 µM (≈ 6.23 µg/mL).

The molecule `O=C(O)c1cn(C2CC2)c2cc(N3CCNCC3)c(F)cc2c1=O` [CIPROFLOXACIN] registered a minimal inhibitory concentration (MIC) in assay [1] of 12.6 µM (≈ 4.17 µg/mL).

With `CC[C@@H](CO)NCCN[C@@H](CC)CO` [ETHAMBUTOL], the minimal inhibitory concentration (MIC) in assay [1] was 15.3 µM (≈ 3.13 µg/mL).

For the molecule `O=C1c2ccccc2-n2c1nc1ccccc1c2=O` [TRYPTANTHRIN], the values for the MIC (in assay [2]; with Mycobacterium avium; in assay [3]) were 1 µg/mL (≈ 4.03 µM), 4 µg/mL (≈ 16.1 µM) and 6 µg/mL (≈ 24.2 µM), respectively.
